From patent US20190255042A1, “APPLICATION OF HEDGEHOG PATHWAY INHIBITOR IN TREATING FIBROSIS DISEASES” (IMPACT THERAPEUTICS, INC, priority 2016, published 2019)

Tests used:
Assay type in all cases: in vivo
[1] = system: unilateral pulmonary fibrosis model in SD rats; assay: Therapeutic efficacy in unilateral pulmonary fibrosis model in SD rats (bleomycin, dosing from D8); set-up: Evaluation of injury and inflammatory lesions of left lung: Fibrotic lesion edge / Evaluation of injury and inflammatory lesions of left lung: Fibrosis lesion: scale not given here; conditions: for Expression of Type I collagen (%) / Expression of α-SMA protein (%): left lung immunohistochemistry; for Expression of Type I collagen (%) / Expression of α-SMA protein (%) / Evaluation of injury and inflammatory lesions of left lung: Fibrosis lesion / Evaluation of injury and inflammatory lesions of left lung: Fibrotic lesion edge / Fibrosis area (left pulmonary) / Fibrosis Score 1-3 (%) / Fibrosis Score 4-8 (%) / Fibrosis score (Ashcraft) / Volume of left lung / Weight of left lung: mean ± sem; for Evaluation of injury and inflammatory lesions of left lung: Fibrosis lesion / Evaluation of injury and inflammatory lesions of left lung: Fibrotic lesion edge: HE score; for Fibrosis area (left pulmonary): Masson trichrome
Protocol: On the modeling day, rats were anesthetized and exposed to trachea. Bleomycin was injected into left trachea of each group (dosage: 3 mg/kg, volume: 1.0 ml/kg). Oral administration was performed on Day 8 after modeling, once a day. On Day 22, according to the KCI animal euthanasia SOP, animals in each group were given an overdose of sodium barbiturate and sacrificed under intraperitoneal anesthesia, the left lung was taken, the weight and volume of the left lung were measured, then fixed by formalin, the bronchioles were stained with HE, Masson trichrome. The bronchioles, final bronchiole and small pulmonary artery injury and inflammation invasion were evaluated by semi-quantitative score, and pulmonary fibrosis was evaluated by Ashcraft semi-quantitative score. Immunohistochemical staining of α-SMA, Type I collagen (Collagen-I) were performed at the same time, a full scan was performed by Hamamatsu NanoZoomer Digital Pathology (S210), the α-SMA positive area was semiquantitatively calculated from the unit area of the whole sheelt in pulmonary fibrosis foci, and the positive staining area of type-I collagent per unit of area was calculated.

[2] = system: liver fibrosis model in C57BL/6 mice induced by CCl4; assay: Prophylactic therapeutic efficacy in liver fibrosis model in C57BL/6 mice induced by CCl4
Protocol: 56 male C57BL/6 mice were randomize divided into false Model group (Group 1, n=6), Model group (Group 2, n=10), positive drug Obercholic acid group (Group 3, n=10, 30 mg/kg/d), compound A low-dose group (Group 4, n=10, 5 mg/kg/d), Compound A medium-dose (Group 5, n=10, 10 mg/kg/d), and Compound A high-dose group (Group 6, n=10, 20 mg/kg/d). Oral molding agent for molding three times a week, for 4 weeks, weighing before each dose. Compound A was administered orally once a day for a total of 28 days from the day of modeling. The model group was given an equal volume of drug vehicle and weighed before each dose. All animals fasted for 6 hours from 24 hours after the end of the last dose. Serum was collected and the concentrations of AST, ALT and TBIL in serum were detected. All animals were euthanized, the livers were collected, weighed, and photos of the gross anatomy of the livers were taken. The liver tissue was fixed in 10% formalin solution for histopathological examination, H&E staining and Sirius red staining.

[3] = system: unilateral pulmonary fibrosis model in SD rats; assay: Prophylactic therapeutic efficacy in unilateral pulmonary fibrosis model in SD rats (bleomycin); set-up: key to Fibrosis score (Ashcraft): Ashcraft semi-quantitative fibrosis score; Evaluation of injury and inflammatory lesions of left lung: Fibrotic lesion edge / Evaluation of injury and inflammatory lesions of left lung: Fibrosis lesion: scale not given here; conditions: for Evaluation of injury and inflammatory lesions of left lung: Fibrosis lesion / Evaluation of injury and inflammatory lesions of left lung: Fibrotic lesion edge / Fibrosis area (left pulmonary fibrosis) / Fibrosis Score 1-3 (%) / Fibrosis Score 4-8 (%) / Fibrosis score (Ashcraft) / Volume of left lung / Weight of left lung: D15, mean ± sem, n = 8; for Evaluation of injury and inflammatory lesions of left lung: Fibrosis lesion / Evaluation of injury and inflammatory lesions of left lung: Fibrotic lesion edge: HE score; for Fibrosis area (left pulmonary fibrosis): Masson trichrome; for weight of left lung compared with model group: p<0.05
Protocol: 40 male SD rats were randomized into Model group (Group 1, n=8), positive drug group BIBF1120 60 mg/kg/d group (Group 2, n=8), Compound A 5 mg/kg/d group (Group 3, n=8), compound A 10 mg/kg/d group (Group 4, n=8) and Compound A 20 mg/kg/d (Group 5, n=8). On the modeling day, rats were anesthetized and exposed to trachea. Bleomycin was injected into trachea of each group (dosage: 3 mg/kg, volume: 1.0 ml/kg). Oral administration was performed 2 hours after modeling, once a day. On Day 15, all the animals were killed, the left lung was taken, the weight and volume of the left lung were measured, then fixed by formalin, the bronchioles were stained with HE, Masson trichrome. The bronchioles, final bronchiole and small pulmonary artery injury and inflammation invasion were evaluated by semi-quantitative score, and pulmonary fibrosis was evaluated by Ashcraft semi-quantitative score.

[4] = 5 mpk oral D8 to D22 after modeling
[5] = 15 mpk oral D8 to D22 after modeling
[6] = 30 mpk oral D8 to D22 after modeling
[7] = high dose group (20 mg/kg/d), four weeks, p<0.05
[8] = obercholic acid 30 mg/kg/d, compound A 5, 10, 20 mg/kg/d
[9] = 5 mg/kg/d oral from modeling day
[10] = 10 mg/kg/d oral from modeling day
[11] = 20 mg/kg/d oral from modeling day

For CC(C)c1cnc(-c2cc(NC(=O)c3ccc(N4C[C@@H](C)N(C)[C@@H](C)C4)cc3C(F)(F)F)ccc2Cl)[nH]1 [Comp A, N-(3-(5-isopropyl-1H-imidazol-2-yl)-4-chlorophenyl)-2-trifluoromethyl-4-((3S,5R)-3,4,5-trimethylpiperazin-1-yl)benzamide], the “percentage of α-SMA protein compared with model group” value ([1]; 30 mg/kg/d) was “significantly decreased”, the “percentage of Type-I collagen protein” value ([1]; 30 mg/kg/d and 15 mg/kg/d, no statistical significance) was “decreased” and the “dose dependence of α-SMA protein expression” value ([1]; 5, 15, 30 mg/kg/d) was “significant dose dependence”. For the same compound, the “Expression of Type I collagen (%)” value ([1]; 5 mpk oral D8 to D22, n = 5) was 18.76 ± 2.54%, the “Expression of α-SMA protein (%)” value ([1]; 5 mpk oral D8 to D22, n = 5) was 8.06 ± 0.59% and the “Evaluation of injury and inflammatory lesions of left lung: Fibrosis lesion” value (shortened to “Evaluation … Fibrosis lesion”) [1, 4] was 6.75 ± 0.40. For the same compound, the “Evaluation of injury and inflammatory lesions of left lung: Fibrotic lesion edge” value (“Evaluation … Fibrotic lesion edge” below) [1, 4] was 4.90 ± 0.15, the “Fibrosis area (left pulmonary)” value [1, 4] was 70.61 ± 5.23 and the “Fibrosis Score 1-3 (%)” value [1, 4] was 88.00 ± 5.83%. The “Fibrosis Score 4-8 (%)” value [1, 4] was 12.00 ± 5.83%, the “Fibrosis score (Ashcraft)” value [1, 4] was 2.44 ± 0.11 and the “Volume of left lung” value [1, 4] was 1.34 ± 0.14 cm^3. The “Weight of left lung” value [1, 4] was 1.60 ± 0.33 g, the “damage and inflammatory response of terminal bronchioles within fibrosis lesions and pulmonary small artery compared with model group” value ([1]; 14 consecutive days, BIBF1120 100, Compound A 5, 15, 30, GDC0449 50 mg/kg/d, p<0.001) was “significantly reduced” and the “Expression of Type I collagen (%)” value ([1]; 15 mpk oral D8 to D22, n = 7) was 16.48 ± 0.93%. For the same compound, the “Expression of α-SMA protein (%)” value ([1]; 15 mpk oral D8 to D22, n = 7) was 7.30 ± 0.84%, the “Evaluation … Fibrosis lesion” value [1, 5] was 6.89 ± 0.34 and the “Evaluation … Fibrotic lesion edge” value [1, 5] was 4.82 ± 0.24. The “Fibrosis area (left pulmonary)” value [1, 5] was 71.16 ± 2.81, the “Fibrosis Score 1-3 (%)” value [1, 5] was 91.43 ± 1.43% and the “Fibrosis Score 4-8 (%)” value [1, 5] was 8.57± 1.43%. For the same compound, the “Fibrosis score (Ashcraft)” value [1, 5] was 2.44 ± 0.07, the “Volume of left lung” value [1, 5] was 1.41 ± 0.21 cm^3 and the “Weight of left lung” value [1, 5] was 1.40 ± 0.21 g. The “Expression of Type I collagen (%)” value ([1]; 30 mpk oral D8 to D22, n = 7) was 16.77 ± 2.03%, the “Expression of α-SMA protein (%)” value ([1]; 30 mpk oral D8 to D22, n = 7, **p<0.01 vs. Model group) was 4.96 ± 0.26** % and the “Evaluation … Fibrosis lesion” value [1, 6] was 7.03 ± 0.18. The “Evaluation … Fibrotic lesion edge” value [1, 6] was 4.95 ± 0.20, the “Fibrosis area (left pulmonary)” value [1, 6] was 71.27 ± 3.21 and the “Fibrosis Score 1-3 (%)” value [1, 6] was 84.29 ± 4.81%. For the same compound, the “Fibrosis Score 4-8 (%)” value [1, 6] was 15.71 ± 4.81%, the “Fibrosis score (Ashcraft)” value [1, 6] was 2.47 ± 0.16 and the “Volume of left lung” value [1, 6] was 1.40 ± 0.09 cm^3. The “Weight of left lung” value [1, 6] was 1.44 ± 0.14 g, the “degree of pulmonary fibrosis (Ashcraft score) compared with model group” value ([1]; BIBF1120 100, Compound A 5, 15, 30, GDC0449 50 mg/kg/d, p<0.01) was “significantly better” and the “amount of Type I collagen deposition in the fibrotic lesions compared with model group” value ([1]; BIBF1120 100 mpk, Compound A 5 mpk, GDC0449 50 mpk) was “no significant difference”. The “serum ALT, AST, and TBIL” value ([2]; 5 mg/kg, 10 mg/kg, and 20 mg/kg daily for four consecutive weeks) was “Slight reductions”, the “effect on the inflammatory response of liver tissue” value ([2]; 5, 10, 20 mg/kg daily for four weeks) was “little effect” and the “dose-dependent ALT and AST” value ([2]; 5, 10, 20 mg/kg/d, four weeks) was “decreasing trend”. The “hepatocellular degeneration, necrosis and inflammatory cell infiltration” value ([2]; Compound A treatment groups 5, 10, 20 mg/kg/d) was “tendency to reduce”, the “TBIL compared with model group” value ([2]; Compound A, four weeks of treatment) was “not significantly decreased” and the liver weight ([2]; after 4 weeks, compared with false model group, Obercholic acid 30 mg/kg/d, Compound A 5, 10, 20 mg/kg/d) was “no significant increase”. The “area of liver tissue fibrosis” value ([2]; compound A dose groups, model group 1.2%, no statistical difference) was 0.8%, the “changes of liver surface compared with model group” value ([2]; gross liver after 4 weeks, Obercholic acid 30 mg/kg/d, compound A 5, 10, 20 mg/kg/d) was “slightly alleviated” and the “ALT compared with model group” value [2, 7] was “significantly lower”. For the same compound, the “AST compared with model group” value [2, 7] was “significantly lower”, the body weight ([2]; high-dose group 20 mg/kg, significant difference from the other groups) was “no significant body weight growth” and the “hepatic fibrosis area (Sirius red staining) compared with model group” value [2, 8] was “no significant difference”. The “total score of liver cell injury compared with model group” value [2, 8] was “not significantly different”, the liver injury score ([2]; three dose groups (5, 10, 20 mg/kg), model group 6 points) was 4-5 points and the “Evaluation … Fibrosis lesion” value [3, 9] was 7.93 ± 0.16. The “Evaluation … Fibrotic lesion edge” value [3, 9] was 5.93 ± 0.20, the “Fibrosis area (left pulmonary fibrosis)” value [3, 9] was 81.64 ± 10.49 and the “Fibrosis Score 1-3 (%)” value [3, 9] was 62.50 ± 16.69%. For the same compound, the “Fibrosis Score 4-8 (%)” value [3, 9] was 37.50 ± 16.69%, the “Fibrosis score (Ashcraft)” value [3, 9] was 3.33 ± 0.36 and the “Volume of left lung” value [3, 9] was 1.38 ± 0.05 cm^3. The “Weight of left lung” value [3, 9] was 1.37 ± 0.08 g, the “Evaluation … Fibrosis lesion” value [3, 10] was 6.93 ± 0.21 and the “Evaluation … Fibrotic lesion edge” value [3, 10] was 5.45 ± 0.28. The “Fibrosis area (left pulmonary fibrosis)” value [3, 10] was 78.84 ± 4.44, the “Fibrosis Score 1-3 (%)” value [3, 10] was 68.75 ± 19.59% and the “Fibrosis Score 4-8 (%)” value [3, 10] was 31.25 ± 19.59%. For the same compound, the “Fibrosis score (Ashcraft)” value [3, 10] was 3.15 ± 0.32, the “Volume of left lung” value [3, 10] was 1.29 ± 0.06 cm^3 and the “Weight of left lung” value [3, 10] was 1.13 ± 0.05 g. The “Evaluation … Fibrosis lesion” value [3, 11] was 7.68 ± 0.31, the “Evaluation … Fibrotic lesion edge” value [3, 11] was 6.00 ± 0.13 and the “Fibrosis area (left pulmonary fibrosis)” value [3, 11] was 76.37 ± 8.33. The “Fibrosis Score 1-3 (%)” value [3, 11] was 71.25 ± 22.95%, the “Fibrosis Score 4-8 (%)” value [3, 11] was 28.75 ± 22.95% and the “Fibrosis score (Ashcraft)” value [3, 11] was 3.29 ± 0.63. The “Volume of left lung” value [3, 11] was 1.21 ± 0.09 cm^3, the “Weight of left lung” value [3, 11] was 1.13 ± 0.08 g and the “injury of terminal bronchioles and pulmonary arterioles compared with model group and Compound A-5 mpk group” value ([3]; 10 mpk, fibrosis foci, p<0.001) was “significantly reduced”. The “weight of left lung compared with model group” value ([3]; 10 mpk) was “significantly lower”, the “weight of left lung compared with model group” value ([3]; 20 mpk) was “significantly lower” and the “degree of pulmonary fibrosis (Ashcraft score) compared with model group” value ([3]; BIBF1120 60 mg/kg/d, Compound A 5, 10, 20 mg/kg/d, p<0.01) was “significantly alleviated”. The “average score of fibrosis in the entire fibrosis lesion (ashcraft)” value ([3]; BIBF1120 60 mg/kg/d, compound A 5, 10, 20 mg/kg/d) was “about 3 points”.
